Results taken from article PMC9926234, “Iterative computational design and crystallographic screening identifies potent inhibitors targeting the Nsp3 macrodomain of SARS-CoV-2” (Proceedings of the National Academy of Sciences of the …, 2023).
Values joined by “and” are separate entries in the source; they are usually repeats but may differ in a detail not shown here. Identical values can stand only once. Like-named read-outs stand apart in the source and are kept apart here.

Target: SARS-CoV-2 NSP3 Mac1 (Severe acute respiratory syndrome coronavirus 2, UniProt P0DTD1)
Format: binding
Settings: for Refined occupancy: ligand occupancy after refinement (phenix.refine)
[1] = PanDDA event map 1-BDC, crystal soak, Compound_concentration 100 mM, PanDDA run dmso_34 or nohits_35 per dataset
[2] = PanDDA event map, 1 minus background density correction, crystal soaking of Mac1
[3] = crystal soak, Compound_concentration 100 mM, Echo dispense 40 nl, PanDDA run dmso_34 or nohits_35 per dataset
[4] = ligand modeled in this dataset, crystal soak, Compound_concentration 100 mM
[5] = PanDDA event map, crystal soak, Compound_concentration 100 mM, Echo_dispense_volume 40 nl
[6] = crystal soak, Compound_concentration 100 mM, Echo_dispense_volume 40 nl, PanDDA run (background map) dmso_34, nohits_35 or nohits_62
[7] = ligand modeled, crystal soak, Compound_concentration 100 mM, Echo_dispense_volume 40 nl
[8] = PanDDA 1-BDC value of the event, crystal soak, compound concentration 100 mM, per dataset
[9] = PanDDA event map, 1-BDC of the hit dataset, crystal soak, compound concentration 100 mM
[10] = crystal soak, compound concentration 100 mM, per dataset
[11] = PanDDA 1-BDC (background density correction) of the event, crystal soak 100 mM, PanDDA run dmso_34
[12] = crystal soak, compound concentration 100 mM, PanDDA run dmso_34, series docking_lead-like_1
[13] = PanDDA event map background density correction, crystal soak, compound concentration 100 mM
[14] = ligand modeled in the crystal structure, crystal soak, compound concentration 100 mM
[15] = PanDDA 1-BDC of the event, compound stock 100 mM, Echo dispense volume 80 nl
[16] = crystal soak, compound stock 100 mM, Echo dispense volume 80 nl
[17] = ligand modeled in the crystal structure, crystal soak 100 mM, PanDDA run dmso_34
[18] = ligand modeled from this dataset, compound concentration 100 mM
[19] = ligand modeled in the crystal structure, crystal soak, compound concentration 100 mM, per dataset

Compound: O=C(Nc1ccc(C(=O)N[C@@H]2c3cccc(O)c3C[C@H]2C(=O)O)cc1)NC1CC1 [Compound E2160]
- 1-BDC [1]: 0.08 and 0.1
- 1-BDC (PanDDA) [2]: 0.1
- PanDDA hit? [3]: TRUE
- Modeled? [4]: TRUE
- Refined occupancy (crystal soaking of Mac1): 20

Compound: CCC(=O)Nc1nc(C)c(S(=O)(=O)Nc2cccc(C#N)c2)s1 [Compound Z0611]
- 1-BDC (PanDDA) [2]: 0.33
- 1-BDC [5]: 0.33
- PanDDA hit? [6]: TRUE
- Modeled? [7]: TRUE
- Refined occupancy (crystal soaking of Mac1): 66

Compound: Nc1ncc(S(=O)(=O)N2CC(F)(F)C[C@H]2C(=O)O)cn1 [Compound Z1314]
- 1-BDC [8]: 0.49
- 1-BDC [9]: 0.3
- 1-BDC [2]: 0.19
- PanDDA hit? [10]: TRUE
- Refined occupancy (crystal soaking of Mac1): 38

Compound: CC(C)c1noc(CCc2nc(-c3ccnc4[nH]ccc34)no2)n1 [Compound Z1347]
- 1-BDC [11]: 0.03
- PanDDA hit? [12]: TRUE

Compound: Nc1ccc(C(=O)N2CC(c3nnc(S)o3)C2)c(Cl)n1 [Compound Z1366]
- 1-BDC [13]: 0.1

Compound: O=C(O)CC1CC(CNC(=O)c2cncc3sccc23)C1 (centres unmarked) [Compound Z1558]
- 1-BDC (PanDDA) [2]: 0.24
- 1-BDC [5]: 0.24
- PanDDA hit? [6]: TRUE
- Modeled? [7]: TRUE
- Refined occupancy (crystal soaking of Mac1): 48
- Comment (ligand modelled in the crystal structure) (what was observed in density instead of the vendor structure): C4 substituted thiophene

Compound: CC(Cc1ccco1)C(=O)N[C@@H](CC(=O)O)c1ccc2c(c1)OCO2 (some centres unmarked) [Compound Z1877]
- 1-BDC [13]: 0.15
- 1-BDC (PanDDA) [2]: 0.15
- Modeled? [14]: TRUE
- Refined occupancy (crystal soaking of Mac1): 30

Compound: CC1(C)CN(c2ncnc3[nH]c4ccccc4c23)CC(CC(=O)O)O1 (centres unmarked) [Compound Z2215]
- 1-BDC (PanDDA 1-BDC of the event, compound stock 100 mM, Echo dispense volume 40 nl): 0.05
- 1-BDC [1]: 0.04
- 1-BDC (PanDDA) [2]: 0.05
- PanDDA hit? [3]: TRUE
- PanDDA hit? (crystal soak, compound stock 100 mM, Echo dispense volume 40 nl): TRUE
- Modeled? (ligand modeled in structure, compound stock 100 mM, Echo dispense volume 40 nl): TRUE
- Refined occupancy (crystal soaking of Mac1): 10

Compound: Cc1oc(CNc2ncnc3[nH]c4ccccc4c23)cc1C(=O)O [Compound Z3124]
- 1-BDC [13]: 0.09
- 1-BDC (PanDDA) [2]: 0.09
- Modeled? [14]: TRUE
- Refined occupancy (crystal soaking of Mac1): 18

Compound: CC(F)(F)c1cncc(C(=O)NC(Cc2cncc(Br)c2)C(=O)O)c1 (centres unmarked) [Compound Z3140]
- 1-BDC [13]: 0.1
- 1-BDC (PanDDA) [2]: 0.1
- Modeled? [14]: TRUE
- Refined occupancy (crystal soaking of Mac1): 20

Compound: O=C(NS(=O)(=O)Cc1ccc(Br)c(F)c1)c1cnn2ccccc12 [Compound Z3209]
- 1-BDC (PanDDA) [2]: 0.38
- 1-BDC [5]: 0.38
- PanDDA hit? [6]: TRUE
- Modeled? [7]: TRUE
- Refined occupancy (crystal soaking of Mac1): 76

Compound: O=C(CCCCc1ccc(Br)cc1)NC(CCc1cn[nH]c1)C(=O)O (centres unmarked) [Compound Z3213]
- 1-BDC [13]: 0.11

Compound: O=C(O)CC(NC(=O)c1cc(F)cc2[nH]cnc12)c1ccc(Br)cc1 (centres unmarked) [Compound Z3722]
- 1-BDC (PanDDA) [2]: 0.29
- 1-BDC [5]: 0.29
- PanDDA hit? [6]: TRUE
- Modeled? [7]: TRUE
- Refined occupancy (crystal soaking of Mac1): 40

Compound: O=C(O)C(F)(F)F.O=C(O)C1CN(c2ncnc3[nH]c4ccccc4c23)CC12CCC2 (centres unmarked) [Compound Z4706]
- 1-BDC [15]: 0.21
- 1-BDC [1]: 0.17
- 1-BDC (PanDDA) [2]: 0.14
- 1-BDC [5]: 0.14
- PanDDA hit? [3]: TRUE
- PanDDA hit? [6]: TRUE
- PanDDA hit? [16]: TRUE
- Modeled? [7]: TRUE
- Refined occupancy (crystal soaking of Mac1): 28

Compound: O=C1OCCN1C1CCN(c2ncnc3[nH]c4cc(F)ccc4c23)C1 (centres unmarked) [Compound Z5107]
- 1-BDC [15]: 0.09
- 1-BDC [1]: 0.06
- 1-BDC (PanDDA) [2]: 0.06
- 1-BDC [5]: 0.06
- PanDDA hit? [3]: TRUE
- PanDDA hit? [6]: TRUE
- PanDDA hit? [16]: TRUE
- Modeled? [7]: TRUE
- Refined occupancy (crystal soaking of Mac1): 12

Compound: O=C(Cc1ccc(-n2cccn2)cc1)OCC1CCCNC1=O (centres unmarked) [Compound Z5505]
- 1-BDC (PanDDA event map background density correction, crystal soak, Compound_concentration 100 mM, PanDDA run dmso_34): 0.08
- 1-BDC [2]: 0.08
- PanDDA hit? (crystal soak, Compound_concentration 100 mM, Echo dispense 40 nl, PanDDA run dmso_34): TRUE
- Modeled? (ligand modeled in crystal structure, crystal soak, Compound_concentration 100 mM, PanDDA run dmso_34): TRUE
- Refined occupancy (crystal soaking of Mac1): 16

Compound: O=C(O)Cc1cccc(CNC(=O)c2ncnc3ccsc23)c1 [Compound Z5712]
- 1-BDC (PanDDA) [2]: 0.32
- 1-BDC [5]: 0.32
- PanDDA hit? [6]: TRUE
- Modeled? [7]: TRUE
- Refined occupancy (crystal soaking of Mac1): 64

Compound: Nc1ncnc2c1ncn2CCCc1ccsc1 [Compound Z5972]
- 1-BDC [11]: 0.16
- PanDDA hit? [12]: TRUE

Compound: CNc1cc(-c2noc(CN3CCCC3=O)n2)ncn1 [Compound Z6028]
- 1-BDC [11]: 0.05
- PanDDA hit? [12]: TRUE

Compound: O=C(O)CC1CCN(c2ncnc3[nH]c4ccccc4c23)CCC1(F)F (centres unmarked) [Compound Z6423]
- 1-BDC [1]: 0.07
- PanDDA hit? [3]: TRUE

Compound: O=C(O)Cc1ccc(CNC(=O)c2ccnc3ccsc23)cc1 [Compound Z6625]
- 1-BDC (PanDDA) [2]: 0.12
- 1-BDC [5]: 0.12
- PanDDA hit? [6]: TRUE
- Modeled? [7]: TRUE
- Refined occupancy (crystal soaking of Mac1): 24

Compound: COc1cncc(C(=O)NCCNC(=O)c2ncccc2O)c1 [Compound Z6634]
- 1-BDC (PanDDA) [2]: 0.14
- 1-BDC [5]: 0.14
- PanDDA hit? [6]: TRUE
- Modeled? [7]: TRUE
- Refined occupancy (crystal soaking of Mac1): 28

Compound: O=C(NC1C=CC(C(=O)O)C1)c1ncnc2sccc12 (centres unmarked) [Compound Z6645]
- 1-BDC [13]: 0.4
- 1-BDC (PanDDA) [2]: 0.4
- Modeled? [14]: TRUE
- Refined occupancy (crystal soaking of Mac1): 80

Compound: CC(=O)Nc1nc(C)c(S(=O)(=O)Nc2ccc(C)c(C#N)c2)s1 [Compound Z6707]
- 1-BDC (PanDDA) [2]: 0.23
- 1-BDC [5]: 0.23
- PanDDA hit? [6]: TRUE
- Modeled? [7]: TRUE
- Refined occupancy (crystal soaking of Mac1): 46

Compound: Cc1oc(C(N)=O)cc1S(=O)(=O)Nc1ccc(Br)c(C#N)c1 [Compound Z6708]
- 1-BDC [13]: 0.26
- 1-BDC (PanDDA) [2]: 0.26
- Modeled? [14]: TRUE
- Refined occupancy (crystal soaking of Mac1): 52

Compound: Cn1ncc2ncnc(NS(=O)(=O)Cc3ccc(CC#N)cc3)c21 [Compound Z6742]
- 1-BDC [13]: 0.31
- 1-BDC (PanDDA) [2]: 0.31
- Modeled? [14]: TRUE
- Refined occupancy (crystal soaking of Mac1): 62

Compound: Cc1oc(C(N)=O)cc1S(=O)(=O)Nc1cnc(Cl)c(C#N)c1 [Compound Z6746]
- 1-BDC [13]: 0.16
- 1-BDC (PanDDA) [2]: 0.16
- Modeled? [14]: TRUE
- Refined occupancy (crystal soaking of Mac1): 32

Compound: c1csc(CC2CCN(c3ncnc4[nH]ccc34)C2)n1 (centres unmarked) [Compound Z6891]
- 1-BDC [11]: 0.3
- 1-BDC [2]: 0.3
- PanDDA hit? [12]: TRUE
- Modeled? [17]: TRUE
- Refined occupancy (crystal soaking of Mac1): 60

Compound: Cc1oc(=O)oc1CSc1ncnc2[nH]cnc12 [Compound Z7450]
- 1-BDC [11]: 0.23
- 1-BDC [2]: 0.23
- PanDDA hit? [12]: TRUE
- Modeled? [17]: TRUE
- Refined occupancy (crystal soaking of Mac1): 25

Compound: O=C(O)c1ccc(F)c(CNC(=O)c2ccc3[nH]ccc3c2)c1 [Compound Z7647]
- 1-BDC (PanDDA) [2]: 0.09
- 1-BDC [5]: 0.09
- PanDDA hit? [6]: TRUE
- Modeled? [7]: TRUE
- Refined occupancy (crystal soaking of Mac1): 18

Compound: OCc1cn(C2CCCN(c3ncnc4[nH]ccc34)C2)nn1 (centres unmarked) [Compound Z7864]
- 1-BDC [11]: 0.05
- 1-BDC [2]: 0.05
- PanDDA hit? [12]: TRUE
- Modeled? [17]: TRUE
- Refined occupancy (crystal soaking of Mac1): 10

Compound: O=C(NC1c2cccc(O)c2CC1C(=O)O)c1ccc(Nc2cccnc2)cc1 (centres unmarked) [Compound Z8539_0018]
- 1-BDC (PanDDA) [2]: 0.1
- Modeled? [18]: TRUE
- Refined occupancy (crystal soaking of Mac1): 20

Compound: O=C(Nc1ccc(C(=O)NC2c3cccc(O)c3CC2C(=O)O)cn1)NC1CC1 (centres unmarked) [Compound Z8539_0054]
- 1-BDC [2]: 0.14
- Modeled? [18]: TRUE
- Refined occupancy (crystal soaking of Mac1): 28

Compound: Cc1nc(Cn2cnc3c(N)nc(N)nc32)cs1 [Compound Z8569]
- 1-BDC [8]: 0.4
- 1-BDC [2]: 0.4
- PanDDA hit? [10]: TRUE
- Modeled? [19]: TRUE
- Refined occupancy (crystal soaking of Mac1): 80

Compound: Nc1nc(N)c2ncn(Cc3csc(Cl)n3)c2n1 [Compound Z8572]
- 1-BDC [2]: 0.44
- Modeled? (ligand modeled in structure, crystal soak, Compound_concentration 100 mM): TRUE
- Refined occupancy (crystal soaking of Mac1): 88

Compound: Nc1nc(N)c2ncn(Cc3csc(C4CC4)n3)c2n1 [Compound Z8585]
- 1-BDC [8]: 0.18
- 1-BDC [9]: 0.4
- 1-BDC [2]: 0.18
- PanDDA hit? [10]: TRUE
- Modeled? [19]: TRUE
- Refined occupancy (crystal soaking of Mac1): 36

Compound: CO[C@@H]1CN(c2ncnc3[nH]c4cc(F)ccc4c23)C[C@@H](CO)O1 [Compound Z8973]
- 1-BDC [15]: 0.25
- 1-BDC [1]: 0.23
- 1-BDC (PanDDA) [2]: 0.23
- 1-BDC [5]: 0.23
- PanDDA hit? [3]: TRUE
- PanDDA hit? [6]: TRUE
- PanDDA hit? [16]: TRUE
- Modeled? [7]: TRUE
- Refined occupancy (crystal soaking of Mac1): 60

Compound: O=C(Nc1ccc(C(=O)N[C@H]2c3cccc(O)c3C[C@H]2C(=O)O)cc1)NC1CC1 [Compound Z9050]
- 1-BDC [1]: 0.21 and 0.27
- 1-BDC (PanDDA) [2]: 0.27
- PanDDA hit? [3]: TRUE
- Modeled? [4]: TRUE
- Refined occupancy (crystal soaking of Mac1): 54
